Structures can show the parent of a compound that is named as a salt.

T1 sequence (P35408 whole entry): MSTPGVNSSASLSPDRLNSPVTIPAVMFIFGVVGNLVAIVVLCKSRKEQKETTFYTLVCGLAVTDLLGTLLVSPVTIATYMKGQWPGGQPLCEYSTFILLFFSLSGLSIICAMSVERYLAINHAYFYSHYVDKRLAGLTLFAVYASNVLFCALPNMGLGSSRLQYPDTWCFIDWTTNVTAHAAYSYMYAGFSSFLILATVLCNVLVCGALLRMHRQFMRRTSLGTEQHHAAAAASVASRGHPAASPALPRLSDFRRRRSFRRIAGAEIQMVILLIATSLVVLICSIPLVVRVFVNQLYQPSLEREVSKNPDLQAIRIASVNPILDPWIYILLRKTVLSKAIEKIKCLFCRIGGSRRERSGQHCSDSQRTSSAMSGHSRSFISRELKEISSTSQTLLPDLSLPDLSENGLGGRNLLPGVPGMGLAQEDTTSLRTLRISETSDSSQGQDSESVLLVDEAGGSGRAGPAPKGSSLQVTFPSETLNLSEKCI

This assay concerns the target T1, human EP4 (hEP4) receptor (Homo sapiens, UniProt P35408).
T1 construct: expressed in transfected cells; host or cells: HEK-293 T cells, transient co-transfection with polyethylenimine
Kind of assay: In vitro human EP4 functional antagonist activity using BRET biosensors (cAMP EPAC biosensor, TCS2510 stimulation). The assay is classed as cell-based. The conditions noted are these: antagonist activity vs EC60 TCS2510, hEP4 in HEK-293 T cells. The method, boiled down:
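Antagonism measured as inhibition of EC60 TCS2510-induced cAMP BRET signal (EPAC luciferase/GFP sensor) in transiently hEP4-expressing HEK-293T cells, following 5 min compound preincubation and 10 min luminescence recording. Plates equilibrated 1 h at 22 °C in HEPES buffer; 10 concentrations over 4.5 logs, duplicate in two independent experiments, sigmoidal variable-slope IC50.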
For orientation: In BRET a luciferase serves as donor, and the signal depends on an acceptor being close.
For orientation: IC50 means the concentration that inhibits the measured activity by half. Low values mean greater potency in that assay, high ones weaker potency in that assay. In turn, `C[C@H](NC(=O)C1(c2cccc(OCC3CC3)c2)CCOCC1)c1ccc(C(=O)O)cc1` [Example 101, 4-[(1S)-1-[[4-[3-(Cyclopropylmethoxy)phenyl]tetrahydropyran-4-carbonyl]amino]ethyl]benzoic acid] registered an IC50 below 1000 nM.

For the compound `C[C@H](NC(=O)C1(N2CC[C@@H](Oc3cccc(Cl)c3)C2)CCC1)c1ccc(C(=O)O)cc1` [Example 159, 4-[(1S)-1-[[1-[(3R)-3-(3-Chlorophenoxy)pyrrolidin-1-yl]cyclobutane-1-carbonyl]amino]ethyl]benzoic acid, hydrochloride], the IC50 was below 100 nM. The compound `COc1cccc(OCCN(C)C2(C(=O)NC3(c4ccc(C(=O)O)cc4)CC3)CCOCC2)c1` [Example 38, 4-[1-[[4-[2-(3-Methoxyphenoxy)ethyl-methyl-amino]tetrahydropyran-4-carbonyl]amino]cyclopropyl]benzoic acid, hydrochloride] gave an IC50 below 100 nM. `C[C@H](NC(=O)C1(NCCOc2ccccc2)CCCC1)c1ccc(C(=O)O)cc1` [Example 61, 4-[(1S)-1-[[1-(2-Phenoxyethylamino)cyclopentanecarbonyl]amino]ethyl]benzoic acid, hydrochloride] displayed an IC50 below 100 nM.

Regarding `CN(CCOc1cccc(F)c1)C1(C(=O)NC2(c3ccc(C(=O)O)cc3)CC2)CCOCC1` [Example 32, 4-[1-[[4-[2-(3-Fluorophenoxy)ethyl-methyl-amino]tetrahydropyran-4-carbonyl]amino]cyclopropyl]benzoic acid, hydrochloride], the IC50 was below 100 nM. In the case of `C[C@H](NC(=O)C1(N(C)CCOc2ccccc2)CCOCC1)c1ccc(C(=O)O)cc1` [Example 2, 4-[(1S)-1-[[4-[Methyl(2-phenoxyethyl)amino]tetrahydropyran-4-carbonyl]amino]ethyl]benzoic acid, hydrochloride], the IC50 is below 100 nM.

The compound `Cc1cccc(O[C@@H]2CCN(C3(C(=O)NC4(c5ccc(C(=O)O)cc5)CC4)CCOCC3)C2)c1` [Example 151, 4-[1-[[4-[(3R)-3-(3-Methylphenoxy)pyrrolidin-1-yl]tetrahydropyran-4-carbonyl]amino]cyclopropyl]benzoic acid, hydrochloride] gave an IC50 below 100 nM. Turning to `C[C@H](NC(=O)C1(c2ccc(OCc3ccccc3)cc2)CCCC1)c1ccc(C(=O)O)cc1` [Example 109, 4-[(1S)-1-[[1-(4-Benzyloxyphenyl)cyclopentanecarbonyl]amino]ethyl]benzoic acid], the IC50 is below 100 nM.

On to `C[C@H](NC(=O)C1(N2CC[C@@H](Oc3cccc(C(F)(F)F)c3)C2)CCCC1)c1ccc(C(=O)O)cc1` [Example 164, 4-[(1S)-1-[[1-[(3R)-3-[3-Trifluoromethyl)phenoxy]pyrrolidin-1-yl]cyclopentane-1-carbonyl]amino]ethyl]benzoic acid, hydrochloride], for which the IC50 was below 100 nM. The value for `C[C@H](NC(=O)C1(N2CC[C@@H](Oc3cccc(F)c3)C2)CCOCC1)c1ccc(C(=O)O)cc1` [Example 142, 4-[(1S)-1-[[4-[(3R)-3-(3-Fluorophenoxy)pyrrolidin-1-yl]tetrahydropyran-4-carbonyl]amino]ethyl]benzoic acid, hydrochloride] was below 100 nM. As for `O=C(O)c1ccc(C2(NC(=O)C3(N4CC[C@@H](Oc5cccc(Cl)c5)C4)CCOCC3)CC2)cc1` [Example 141, 4-[1-[[4-[(3R)-3-(3-Chlorophenoxy)pyrrolidin-1-yl]tetrahydropyran-4-carbonyl]amino]cyclopropyl]benzoic acid, hydrochloride], the figure is below 100 nM; as for `CN(CCOc1ccccc1)C1(C(=O)NC2(c3ccc(C(=O)O)c(Cl)c3)CC2)CCOCC1` [Example 51, 2-Chloro-4-[1-[[4-[methyl(2-phenoxyethyl)amino]tetrahydropyran-4-carbonyl]amino]cyclopropyl]benzoic acid, hydrochloride], below 1000 nM.

The values are drawn from patent US12527779B2, “Prostaglandin E2 (PGE2) EP4 receptor antagonists” (Domain Therapeutics, priority 2019, dated 2026).
